Like-named read-outs stand apart in the source and are kept apart here.
How the values were obtained:
LXR α LBD protein = LXR α LBD protein (Homo sapiens (Human), UniProt Q13133); assay: LXR α radioligand binding assay (SPA, competition with [3H]TO901317); details: read-out: LXRα Binding Ki
[1] = target: Gal4 DNA binding domain fused to the LBD of LXRα in HEK293 cells (Homo sapiens (Human), UniProt Q13133); assay: LXR luciferase transcriptional reporter gene assay, agonist mode, LXRα; type: cell-based; details: for EC50: read-out: Cell LXRα EC50
Gal4 DNA binding domain fused to the LBD of LXRα in HEK293 cells, sequence (Q13133 209-447): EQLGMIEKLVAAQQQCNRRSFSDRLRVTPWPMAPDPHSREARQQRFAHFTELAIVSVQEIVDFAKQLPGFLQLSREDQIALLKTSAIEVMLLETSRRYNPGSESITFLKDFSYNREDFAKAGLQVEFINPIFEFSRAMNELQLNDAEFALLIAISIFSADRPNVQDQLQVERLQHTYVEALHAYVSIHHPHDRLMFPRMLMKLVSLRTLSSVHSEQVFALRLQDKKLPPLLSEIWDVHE

[2] = target: Gal4 DNA binding domain fused to the LBD of LXRβ in HEK293 cells (Homo sapiens (Human), UniProt P55055); assay: cell-based
Gal4 DNA binding domain fused to the LBD of LXRβ in HEK293 cells, sequence (P55055 222-460 limits assumed): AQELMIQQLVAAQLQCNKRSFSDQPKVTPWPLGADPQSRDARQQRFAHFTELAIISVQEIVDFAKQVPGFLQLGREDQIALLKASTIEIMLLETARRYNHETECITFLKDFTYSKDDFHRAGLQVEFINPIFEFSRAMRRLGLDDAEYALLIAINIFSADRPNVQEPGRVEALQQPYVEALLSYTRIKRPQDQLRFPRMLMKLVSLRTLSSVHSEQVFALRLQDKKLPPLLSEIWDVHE

LXR β LBD protein = LXR β LBD protein (Homo sapiens (Human), UniProt P55055); assay: biochemical; type: binding
LXR β LBD protein, sequence (P55055 222-460 limits assumed): as above

LXR α LBD protein, sequence (Q13133 209-447): as the sequence (Q13133 209-447) above

Compound | Ki (LXR α LBD protein) | Cell LXRα efficacy [1] | EC50 [1] | Cell LXRβ efficacy [2] | EC50 [2] | Ki (LXR β LBD protein; read-out: LXRβ Binding Ki) | Cell LXRβ efficacy ([2]; agonist mode) | EC50 ([1]; agonist mode) | Ki (LXR β LBD protein)
CC(C)[C@@H]1CN(c2ccc(F)c(S(C)(=O)=O)c2)CCN1c1nc2ncccc2s1 [7-59, (R)-2-(4-(4-fluoro-3-(methylsulfonyl)phenyl)-2-isopropylpiperazin-1-yl)thiazolo[4,5-b]pyridine] | 281 nM | 827 (84) % | 827 nM | 289 (83) % | 289 nM | 39 nM |  |  | 
COC(=O)c1cnc(N2CCN(c3ccc(F)c(S(C)(=O)=O)c3)CC2C(C)(C)C)nc1C(F)(F)F (stereo not drawn) [9-5, methyl 2-(2-(tert-butyl)-4-(4-fluoro-3-(methylsulfonyl)phenyl)piperazin-1-yl)-4-(trifluoromethyl)pyrimidine-5-carboxylate] | 41 nM | 504 (46) % | 504 nM |  | 82 nM | 9 nM | 82 (21) % |  | 
CNS(=O)(=O)c1cc(N2CCN(c3ncc(C(=O)OC)c(C(F)(F)F)n3)[C@H](C(C)C)C2)ccc1F [9-6, methyl (R)-2-(4-(4-fluoro-3-(N-methylsulfamoyl)phenyl)-2-isopropylpiperazin-1-yl)-4-(trifluoromethyl)pyrimidine-5-carboxylate] | 101 nM | 503 (59) % |  | 74 (41) % | 74 nM | 8 nM |  | 503 nM | 
CCOC(=O)c1cnc(N2CCN(c3cccc(S(C)(=O)=O)c3)C[C@H]2c2nc(C)cs2)nc1C(F)(F)F [9-8, ethyl (S)-2-(4-(3-(methylsulfonyl)phenyl)-2-(4-methylthiazol-2-yl)piperazin-1-yl)-4-(trifluoromethyl)pyrimidine-5-carboxylate] | 2340 nM |  |  |  | 2470 nM | 659 nM | 2469 (14) % | > 20000 nM | 
CCOC(=O)c1cnc(N2CCN(c3ccc(-c4nnc(C)o4)c(S(C)(=O)=O)c3)C[C@H]2C(C)C)nc1C(F)(F)F [9-11, ethyl (R)-2-(2-isopropyl-4-(4-(5-methyl-1,3,4-oxadiazol-2-yl)-3-(methylsulfonyl)phenyl)piperazin-1-yl)-4-(trifluoromethyl)pyrimidine-5-carboxylate] | 2140 nM |  | > 20000 nM |  | 869 nM | 839 nM | 869 (9) % |  | 
CCOC(=O)c1cnc(N2CCN(c3ccc(-c4nnc(C)s4)c(S(C)(=O)=O)c3)C[C@H]2C(C)C)nc1C(F)(F)F [9-13, ethyl (R)-2-(2-isopropyl-4-(4-(5-methyl-1,3,4-thiadiazol-2-yl)-3-(methylsulfonyl)phenyl)piperazin-1-yl)-4-(trifluoromethyl)pyrimidine-5-carboxylate] | 703 nM | 2862 (21) % |  |  | 1200 nM | 171 nM | 1204 (34) % | 2860 nM | 
CC(C)[C@@H]1CN(c2ccc(F)c(S(N)(=O)=O)c2)CCN1c1ncc(C(C)(C)O)c(C(F)(F)F)n1 [10-2, (R)-2-fluoro-5-(4-(5-(2-hydroxypropan-2-yl)-4-(trifluoromethyl)pyrimidin-2-yl)-3-isopropylpiperazin-1-yl)benzenesulfonamide] | 469 nM | 2692 (45) % |  |  | 475 nM | 34 nM | 475 (39) % | 2690 nM | 
CC(C)(O)c1cnc(N2CCN(c3ccc(F)c(S(C)(=O)=O)c3)CC2C(C)(C)C)nc1C(F)(F)F (stereo not drawn) [10-4, 2-(2-(2-(tert-butyl)-4-(4-fluoro-3-(methylsulfonyl)phenyl)piperazin-1-yl)-4-(trifluoromethyl)pyrimidin-5-yl)propan-2-ol] | 59 nM | 1034 (28) % | 1030 nM |  | 128 nM | 6 nM | 128 (13) % |  | 
CC(C)[C@H]1CN(c2ccc(CO)c(S(C)(=O)=O)c2)CCN1c1ncc(C(C)(C)O)c(C(F)(F)F)n1 [10-5, (S)-2-(2-(4-(4-(hydroxymethyl)-3-(methylsulfonyl)phenyl)-2-isopropylpiperazin-1-yl)-4-(trifluoromethyl)pyrimidin-5-yl)propan-2-ol] | 1280 nM | 3627 (67) % |  |  | 980 nM | 230 nM | 980 (58) % | 3630 nM | 
CC(C)[C@@H]1CN(c2ccc(CO)c(S(C)(=O)=O)c2)CCN1c1ncc(C(C)(C)O)c(C(F)(F)F)n1 [10-7, (R)-2-(2-(4-(4-(hydroxymethyl)-3-(methylsulfonyl)phenyl)-2-isopropylpiperazin-1-yl)-4-(trifluoromethyl)pyrimidin-5-yl)propan-2-ol] | 261 nM | 1520 (51) % |  |  | 235 nM | 18 nM | 235 (40) % | 1520 nM | 
CC(C)[C@@H]1CN(c2ccc(F)c(S(C)(=O)=O)c2)CCN1c1nc(C(F)(F)F)c(C(C)(C)O)o1 [10-8, (R)-2-(2-(4-(4-fluoro-3-(methylsulfonyl)phenyl)-2-isopropylpiperazin-1-yl)-4-(trifluoromethyl)oxazol-5-yl)propan-2-ol] | 2190 nM | 4655 (96) % | 4660 nM |  | 901 nM | 132 nM | 901 (76) % |  | 
CC(C)(O)c1cc(CN2CCN(c3cccc(S(C)(=O)=O)c3)C[C@H]2c2ccccc2)ccc1C(F)(F)F [10-14, (R)-2-(5-((4-(3-(methylsulfonyl)phenyl)-2-phenylpiperazin-1-yl)methyl)-2-(trifluoromethyl)phenyl)propan-2-ol] | 4560 nM |  |  |  | > 20000 nM | 1480 nM |  | > 20000 nM | 
CC(C)[C@@H]1CN(c2ccc(F)c(S(N)(=O)=O)c2)CCN1c1ncc(CO)c(C(F)(F)F)n1 [11-2, (R)-2-fluoro-5-(4-(5-(hydroxymethyl)-4-(trifluoromethyl)pyrimidin-2-yl)-3-isopropylpiperazin-1-yl)benzenesulfonamide] | 357 nM | 1336 (57) % | 1340 nM |  | 243 nM | 35 nM | 243 (46) % |  | 
CC(C)[C@@H]1CN(c2ccc(Cl)c(S(C)(=O)=O)c2)CCN1c1ncc(CO)c(C(F)(F)F)n1 [11-3, (R)-(2-(4-(4-chloro-3-(methylsulfonyl)phenyl)-2-isopropylpiperazin-1-yl)-4-(trifluoromethyl)pyrimidin-5-yl)methanol] | 146 nM | 1014 (62) % | 1010 nM |  | 95 nM | 6 nM | 95 (44) % |  | 
CS(=O)(=O)c1cc(N2CCN(c3ncc(CO)c(C(F)(F)F)n3)[C@H](c3ccc(F)cc3)C2)ccc1F [11-7, (R)-(2-(4-(4-fluoro-3-(methylsulfonyl)phenyl)-2-(4-fluorophenyl)piperazin-1-yl)-4-(trifluoromethyl)pyrimidin-5-yl)methanol] | 1160 nM | 2240 (13) % |  |  | 315 nM | 85 nM | 315 (14) % | 2240 nM | 
Cc1coc(-c2ccc(N3CCN(c4ncc(CO)c(C(F)(F)F)n4)[C@H](C(C)C)C3)cc2S(C)(=O)=O)n1 [11-8, (R)-(2-(2-isopropyl-4-(4-(4-methyloxazol-2-yl)-3-(methylsulfonyl)phenyl)piperazin-1-yl)-4-(trifluoromethyl)pyrimidin-5-yl)methanol] | 1160 nM | 2934 (53) % |  |  | 405 nM | 133 nM | 405 (53) % | 2930 nM | 
Cc1nnc(-c2ccc(N3CCN(c4ncc(CO)c(C(F)(F)F)n4)[C@H](C(C)C)C3)cc2S(C)(=O)=O)o1 [11-9, (R)-(2-(2-isopropyl-4-(4-(5-methyl-1,3,4-oxadiazol-2-yl)-3-(methylsulfonyl)phenyl)piperazin-1-yl)-4-(trifluoromethyl)pyrimidin-5-yl)methanol] | 1970 nM | 3283 (31) % | 3280 nM |  | 603 nM | 247 nM | 603 (39) % |  | 
Cc1noc(-c2ccc(N3CCN(c4ncc(CO)c(C(F)(F)F)n4)[C@H](C(C)C)C3)cc2S(C)(=O)=O)n1 [11-10, (R)-(2-(2-isopropyl-4-(4-(3-methyl-1,2,4-oxadiazol-5-yl)-3-(methylsulfonyl)phenyl)piperazin-1-yl)-4-(trifluoromethyl)pyrimidin-5-yl)methanol] | > 3330 nM | 6291 (28) % |  |  | 2250 nM | 773 nM | 2253 (36) % | 6290 nM | 
Cc1nc(N2CCN(c3ccc(F)c(S(C)(=O)=O)c3)C[C@H]2C(C)C)ncc1CO [11-14, (R)-(2-(4-(4-fluoro-3-(methylsulfonyl)phenyl)-2-isopropylpiperazin-1-yl)-4-methylpyrimidin-5-yl)methanol] | > 3330 nM |  | > 20000 nM |  | > 20000 nM |  |  |  | 515 nM
CNS(=O)(=O)c1cc(N2CCN(c3ncc(C(C)O)c(C(F)(F)F)n3)[C@H](C(C)C)C2)ccc1F (stereo partly drawn) [12-8, 2-fluoro-5-((3R)-4-(5-(1-hydroxyethyl)-4-(trifluoromethyl)pyrimidin-2-yl)-3-isopropylpiperazin-1-yl)-N-methylbenzenesulfonamide] | 126 nM | 503 (56) % |  |  | 59 nM | 4 nM | 59 (46) % | 503 nM | 
